Measurements: ChEMBL document CHEMBL5726212, “Substituted pyridines as inhibitors of human immunodeficiency virus replication” (2019)

Experiment: Inhibition of HIV replication: A recombinant NL-RLuc proviral clone was constructed in which a section of the nef gene from NL4-3 was replaced with the Renilla Luciferase gene. This virus is fully infectious and can undergo multiple cycles of replication in cell culture. In addition, the luciferous reporter provides a simple and easy method for quantitating the extent of virus growth and consequently, the antiviral activity of test compounds. The plasmid pNLRLuc contains the proviral NL-Rluc DNA cloned into pUC18 at the PvuII site. The NL-RLuc virus was prepared by transfection of 293T cells with the plasmid pNLRLuc. Transfections were performed using the LipofectAMINE PLUS kit from Invitrogen (Carlsbad, Calif.) according to the manufacturer and the virus generated was titered in MT-2 cells. For susceptibility analyses, the titrated virus was used to infect MT-2 cells in the presence of compound, and after 5 days of incubation, cells were processed and quantitated for virus growth by the amount of expressed luciferase. Assay media was RPMI 1640 supplemented with 10% heat inactivated fetal bovine serum (FBS), 100 units/ml penicillin G/100 units/ml streptomycin, 10 mM HEPES buffer pH 7.55 and 2 mM L-glutamine. The results from at least 2 experiments were used to calculate the EC50 values. Luciferase was quantitated using the Dual Luciferase kit from Promega (Madison, Wis.). Susceptibility of viruses to compounds was determined by incubation in the presence of serial dilutions of the compound. The 50% effective concentration (EC50) was calculated by using the exponential form of the median effect equation where (Fa)=1/[1+(ED50/drug conc.)m] (Johnson V A, Byington R T. Infectivity Assay. In Techniques in HIV Research. ed. Aldovini A, Walker B D. 71-76. New York: Stockton Press.1990).
Type: cell-based

SMILES | EC50 | EC50 (HEK-293T)
COc1cc(F)cc(F)c1CN1CCc2cc(-c3c(C)nc(C)c([C@H](OC(C)(C)C)C(=O)O)c3N3CCC(C)(C)CC3)ccc2C1 | < 100 nM | < 100 nM
COc1cc(F)c(CN2CCc3cc(-c4c(C)nc(C)c([C@H](OC(C)(C)C)C(=O)O)c4N4CCC(C)(C)CC4)ccc3C2)c(F)c1 | < 100 nM | < 100 nM
Cc1ccc(CN2CCc3cc(-c4c(C)nc(C)c([C@H](OC(C)(C)C)C(=O)O)c4N4CCC(C)(C)CC4)ccc3C2)cc1C | < 100 nM | < 100 nM
